Tests used:
[1] = 367 evaluable patients; criteria weight gain and pain relief; cited from earlier work
[2] = male subjects, oral, one 50 mg dose; cited from earlier work
[3] = pharmacokinetics of CPA in humans, plasma concentration; assay type: in vivo, human; details: longer period of continual dosing of 50 mg per day
Excerpt: The Androcur® Monograph, Berlex, Canada (1997) reports on the pharmacokinetics of CPA in humans. […] Blood levels of CPA are known to be generally dose dependent.

[4] = cited from earlier work
[5] = men; cited from earlier work
[6] = test system: human breast cancer ZR-75-1 cells; details: low concentrations, in vitro; cited from earlier work
[7] = castrated adult rats; cited from earlier work
[8] = orchiectomized patients, 6 months, 150 mg/day CPA (50 mg t.i.d.); cited from earlier work
[9] = 17 patients, goserelin alone; cited from earlier work

CC(=O)O[C@]1(C(C)=O)CC[C@H]2[C@@H]3C=C(Cl)C4=CC(=O)[C@@H]5C[C@@H]5[C@]4(C)[C@H]3CC[C@@]21C [CPA, Cyproterone acetate]
patients with general improvement in subjective assessment of quality of life [1]: 70% | mean plasma concentration [2]: about 700 nmol/L | cumulative plasma level, steady state [3]: ≥ 750 nmol/L | discontinuation due to side effects ([4]; 89 orchiectomized patients, 50 mg/day CPA, 2 to 152 months): in no case | cases of hepatocellular carcinoma ([4]; over 2500 patients, long term CPA use): Not a single case | threshold value for an antiandrogen effect [5]: 50 mg | androgenic activity [6]: possess androgenic activity | inhibition of complete involution of the ventral prostate [7]: very weak | number of patients experiencing hot flashes or outbreaks of sweating [8]: decreased

CC(C)C[C@H](NC(=O)[C@@H](COC(C)(C)C)NC(=O)[C@H](Cc1ccc(O)cc1)NC(=O)[C@H](CO)NC(=O)[C@H](Cc1c[nH]c2ccccc12)NC(=O)[C@H](Cc1cnc[nH]1)NC(=O)[C@@H]1CCC(=O)N1)C(=O)N[C@@H](CCCNC(=N)N)C(=O)N1CCC[C@H]1C(=O)NNC(N)=O [goserelin]
patients with transient increase in bone pain [9]: 58.5%

C[C@]12CC[C@H]3[C@@H](CCC4=CC(=O)CC[C@@H]43)[C@@H]1CC[C@@H]2O [nor-testosterone]
androgenic activity [6]: possess androgenic activity

C#C[C@]1(O)CC[C@H]2[C@@H]3CCC4=CC(=O)CC[C@]4(C)[C@H]3CC[C@@]21C [ethisterone]
androgenic activity [6]: possess androgenic activity
